EC50 data for 30 compounds are collected here from patent US20240228504A1, “SUBSTITUTED TRICYCLIC AMIDES, ANALOGUES THEREOF, AND METHODS USING SAME” (Arbutus Biopharma Corporation, priority 2020, published 2024).

For the first test, the system named is HBV rcDNA in HepDE19 cells. The experiment in a line: HepDE19 assay with bDNA quantitation of HBV rcDNA. To be noted: Hepatitis B virus, HepDE19, HepDE19 assay, inhibition of rcDNA formation, bDNA quantitation; read-out: DE-19bDNA EC50. In kind it is cell-based, hepatitis B virus.
As usually defined, the EC50 is the concentration that produces a half-maximal response. `CN(C(=O)c1cncc(Cl)c1)[C@@H]1COCc2[nH]c(=O)c3cc(F)c(F)cc3c21` [Compound 84, (S)-5-Chloro-N-(8,9-difluoro-6-oxo-1,4,5,6-tetrahydro-2H-pyrano[3,4-c]isoquinolin-1-yl)-N-methylnicotinamide]: the concentration giving a half-maximal response (EC50) worked out at 5.7 µM. Same read-out and setting: under `CN(C(=O)c1ccnc(F)c1)[C@@H]1COCc2[nH]c(=O)c3cc(F)c(F)cc3c21` [Compound 85, (S)-N-(8,9-Difluoro-6-oxo-1,4,5,6-tetrahydro-2H-pyrano[3,4-c]isoquinolin-1-yl)-2-fluoro-N-methylisonicotinamide] stands 0.63 µM.

Regarding `CN(C(=O)c1cccc(C(F)F)c1)[C@@H]1COCc2[nH]c(=O)c3cc(F)c(F)cc3c21` [Compound 86, (S)-N-(8,9-Difluoro-6-oxo-1,4,5,6-tetrahydro-2H-pyrano[3,4-c]isoquinolin-1-yl)-3-(difluoromethyl)-N-methylbenzamide], the EC50 was found to be 0.03 µM. `CN(C(=O)[C@@H](O)Cc1ccccc1)[C@@H]1COCc2[nH]c(=O)c3cc(F)c(F)cc3c21` [Compound 87, (S)-N-((S)-8,9-Difluoro-6-oxo-1,4,5,6-tetrahydro-2H-pyrano[3,4-c]isoquinolin-1-yl)-2-hydroxy-N-methyl-3-phenylpropanamide]: the EC50 was 3.2 µM. For the compound `CN(C(=O)[C@H](O)Cc1ccccc1)[C@@H]1COCc2[nH]c(=O)c3cc(F)c(F)cc3c21` [Compound 88, (R)-N-((S)-8,9-Difluoro-6-oxo-1,4,5,6-tetrahydro-2H-pyrano[3,4-c]isoquinolin-1-yl)-2-hydroxy-N-methyl-3-phenylpropanamide], the concentration giving a half-maximal response (EC50) came to 0.48 µM. Same read-out and setting: under `CN(C(=O)c1ccccc1)[C@@H]1COCc2[nH]c(=O)c3cc(F)c(F)cc3c21` [Compound 91, (S)-N-(8,9-Difluoro-6-oxo-1,4,5,6-tetrahydro-2H-pyrano[3,4-c]isoquinolin-1-yl)-N-methylbenzamide] stands 1.01 µM; under `CN(C(=O)c1ccc(F)c(F)c1)[C@@H]1COCc2[nH]c(=O)c3cc(F)c(F)cc3c21` [Compound 92, (S)-N-(8,9-Difluoro-6-oxo-1,4,5,6-tetrahydro-2H-pyrano[3,4-c]isoquinolin-1-yl)-3,4-difluoro-N-methylbenzamide], 0.28 µM. The same measure, in the same setting: under `CN(C(=O)[C@@](C)(O)c1ccccc1)[C@@H]1COCc2[nH]c(=O)c3cc(F)c(F)cc3c21` [Compound 93, (S)-N-((S)-8,9-Difluoro-6-oxo-1,4,5,6-tetrahydro-2H-pyrano[3,4-c]isoquinolin-1-yl)-2-hydroxy-N-methyl-2-phenylpropanamide] stands 12 µM. As to `CN(C(=O)[C@](C)(O)c1ccccc1)[C@@H]1COCc2[nH]c(=O)c3cc(F)c(F)cc3c21` [Compound 94, (R)-N-((S)-8,9-Difluoro-6-oxo-1,4,5,6-tetrahydro-2H-pyrano[3,4-c]isoquinolin-1-yl)-2-hydroxy-N-methyl-2-phenylpropanamide], the EC50 stood at 3.2 µM. Consider `CN(C(=O)[C@@H](O)c1ccccc1)[C@@H]1COCc2[nH]c(=O)c3cc(F)c(F)cc3c21` [Compound 95, (S)-N-((S)-8,9-Difluoro-6-oxo-1,4,5,6-tetrahydro-2H-pyrano[3,4-c]isoquinolin-1-yl)-2-hydroxy-N-methyl-2-phenylacetamide], for which the EC50 is 24 µM. Same read-out and setting: under `CN(C(=O)[C@H](O)c1ccccc1)[C@@H]1COCc2[nH]c(=O)c3cc(F)c(F)cc3c21` [Compound 96, (R)-N-((S)-8,9-Difluoro-6-oxo-1,4,5,6-tetrahydro-2H-pyrano[3,4-c]isoquinolin-1-yl)-2-hydroxy-N-methyl-2-phenylacetamide] stands 10 µM. `CN(C(=O)c1cc2c(F)c(F)c(F)cc2[nH]1)[C@@H]1COCc2[nH]c(=O)c3cc(F)c(F)cc3c21` [Compound 97, (S)-N-(8,9-Difluoro-6-oxo-1,4,5,6-tetrahydro-2H-pyrano[3,4-c]isoquinolin-1-yl)-4,5,6-trifluoro-N-methyl-1H-indole-2-carboxamide]: the EC50 amounted to 0.01 µM.

As for `CN(C(=O)c1ccc(C(F)(F)F)cc1)[C@@H]1COCc2[nH]c(=O)c3cc(F)c(F)cc3c21` [Compound 98, (S)-N-(8,9-Difluoro-6-oxo-1,4,5,6-tetrahydro-2H-pyrano[3,4-c]isoquinolin-1-yl)-N-methyl-4-(trifluoromethyl)benzamide], the half-maximal effective concentration (EC50) amounted to 0.01 µM.

For `CN(C(=O)c1ccc(C#N)c(F)c1)[C@@H]1COCc2[nH]c(=O)c3cc(F)c(F)cc3c21` [Compound 100, (S)-4-Cyano-N-(8,9-difluoro-6-oxo-1,4,5,6-tetrahydro-2H-pyrano[3,4-c]isoquinolin-1-yl)-3-fluoro-N-methylbenzamide], the EC50 came to 0.04 µM.

`CN(C(=O)c1ccc(F)c(C(F)F)c1)[C@@H]1COCc2[nH]c(=O)c3cc(F)c(F)cc3c21` [Compound 109, (S)-N-(8,9-Difluoro-6-oxo-1,4,5,6-tetrahydro-2H-pyrano[3,4-c]isoquinolin-1-yl)-3-(difluoromethyl)-4-fluoro-N-methylbenzamide]: the concentration for a half-maximal effect (EC50) stood at 0.02 µM. Same read-out and setting: under `CN(C(=O)c1ccc(C(F)F)c(F)c1)[C@@H]1COCc2[nH]c(=O)c3cc(F)c(F)cc3c21` [Compound 110, (S)-N-(8,9-Difluoro-6-oxo-1,4,5,6-tetrahydro-2H-pyrano[3,4-c]isoquinolin-1-yl)-4-(difluoromethyl)-3-fluoro-N-methylbenzamide] stands 0.01 µM; under `CN(C(=O)c1ccc(C(F)F)cc1)[C@@H]1COCc2[nH]c(=O)c3cc(F)c(F)cc3c21` [Compound 111, (S)-N-(8,9-Difluoro-6-oxo-1,4,5,6-tetrahydro-2H-pyrano[3,4-c]isoquinolin-1-yl)-4-(difluoromethyl)-N-methylbenzamide], 0.02 µM.

In the case of `CN(C(=O)c1ccc(F)c(Cl)c1)[C@@H]1COCc2[nH]c(=O)c3cc(F)c(F)cc3c21` [Compound 112, (S)-3-Chloro-N-(8,9-difluoro-6-oxo-1,4,5,6-tetrahydro-2H-pyrano[3,4-c]isoquinolin-1-yl)-4-fluoro-N-methylbenzamide], the concentration giving a half-maximal response (EC50) worked out at 0.04 µM. As for `CN(C(=O)c1nc2ccccc2s1)[C@@H]1COCc2[nH]c(=O)c3cc(F)c(F)cc3c21` [Compound 123, (S)-N-(8,9-Difluoro-6-oxo-1,4,5,6-tetrahydro-2H-pyrano[3,4-c]isoquinolin-1-yl)-N-methylbenzo[d]thiazole-2-carboxamide], the concentration for a half-maximal effect (EC50) is 1.5 µM. On the same count and under the same terms, under `CN(C(=O)c1nc2ccccc2o1)[C@@H]1COCc2[nH]c(=O)c3cc(F)c(F)cc3c21` [Compound 124, (S)-N-(8,9-Difluoro-6-oxo-1,4,5,6-tetrahydro-2H-pyrano[3,4-c]isoquinolin-1-yl)-N-methylbenzo[d]oxazole-2-carboxamide] stands 1.1 µM; under `CN(C(=O)c1cc(C(F)(F)F)n[nH]1)[C@@H]1COCc2[nH]c(=O)c3cc(F)c(F)cc3c21` [Compound 125, (S)-N-(8,9-Difluoro-6-oxo-1,4,5,6-tetrahydro-2H-pyrano[3,4-c]isoquinolin-1-yl)-N-methyl-3-(trifluoromethyl)-1H-pyrazole-5-carboxamide], 0.15 µM.

As to `CN(C(=O)c1cc(-c2ccc(F)cc2)n[nH]1)[C@@H]1COCc2[nH]c(=O)c3cc(F)c(F)cc3c21` [Compound 126, (S)-N-(8,9-Difluoro-6-oxo-1,4,5,6-tetrahydro-2H-pyrano[3,4-c]isoquinolin-1-yl)-3-(4-fluorophenyl)-N-methyl-1H-pyrazole-5-carboxamide], the concentration giving a half-maximal response (EC50) is 21 µM. The same measure, in the same setting: under `CN(C(=O)c1cccc(F)c1)[C@@H]1COCc2[nH]c(=O)c3cc(F)c(F)cc3c21` [Compound 127, (S)-N-(8,9-Difluoro-6-oxo-1,4,5,6-tetrahydro-2H-pyrano[3,4-c]isoquinolin-1-yl)-3-fluoro-N-methylbenzamide] stands 0.38 µM; under `CN(C(=O)c1cccc(Cl)c1)[C@@H]1COCc2[nH]c(=O)c3cc(F)c(F)cc3c21` [Compound 128, (S)-3-Chloro-N-(8,9-difluoro-6-oxo-1,4,5,6-tetrahydro-2H-pyrano[3,4-c]isoquinolin-1-yl)-N-methylbenzamide], 0.09 µM. As for `CN(C(=O)c1cccc(Br)c1)[C@@H]1COCc2[nH]c(=O)c3cc(F)c(F)cc3c21` [Compound 129, (S)-3-Bromo-N-(8,9-difluoro-6-oxo-1,4,5,6-tetrahydro-2H-pyrano[3,4-c]isoquinolin-1-yl)-N-methylbenzamide], the EC50 worked out at 0.09 µM. On the same count and under the same terms, under `CN(C(=O)c1ccc(F)c(Br)c1)[C@@H]1COCc2[nH]c(=O)c3cc(F)c(F)cc3c21` [Compound 130, (S)-3-Bromo-N-(8,9-difluoro-6-oxo-1,4,5,6-tetrahydro-2H-pyrano[3,4-c]isoquinolin-1-yl)-4-fluoro-N-methylbenzamide] stands 0.01 µM; under `CN(C(=O)c1ccc(Br)cc1)[C@@H]1COCc2[nH]c(=O)c3cc(F)c(F)cc3c21` [Compound 131, (S)-4-Bromo-N-(8,9-difluoro-6-oxo-1,4,5,6-tetrahydro-2H-pyrano[3,4-c]isoquinolin-1-yl)-N-methylbenzamide], 0.01 µM. Consider `CN(C(=O)c1cccc(C#N)c1)[C@@H]1COCc2[nH]c(=O)c3cc(F)c(F)cc3c21` [Compound 135, (S)-3-Cyano-N-(8,9-difluoro-6-oxo-1,4,5,6-tetrahydro-2H-pyrano[3,4-c]isoquinolin-1-yl)-N-methylbenzamide], for which the half-maximal effective concentration (EC50) was determined as 0.77 µM. On the same count and under the same terms, under `CN(C(=O)c1ccc(OC(F)(F)F)c(F)c1)[C@@H]1COCc2[nH]c(=O)c3cc(F)c(F)cc3c21` [Compound 136, (S)-N-(8,9-Difluoro-6-oxo-1,4,5,6-tetrahydro-2H-pyrano[3,4-c]isoquinolin-1-yl)-3-fluoro-N-methyl-4-(trifluoromethoxy)benzamide] stands 0.04 µM.

Still in this test, the particulars now being: Hepatitis B virus, HepDE19, read-out: DE-19bDNA EC50 (μM).
On to `CN(C(=O)c1ccc(Cl)cc1)[C@@H]1COCc2[nH]c(=O)c3cc(F)c(F)cc3c21` [Compound 99, (S)-4-Chloro-N-(8,9-difluoro-6-oxo-1,4,5,6-tetrahydro-2H-pyrano[3,4-c]isoquinolin-1-yl)-N-methylbenzamide], for which the EC50 was determined as 0.02 µM.
